Measured values published in ChEMBL document CHEMBL5512603, “Development of de-novo coronavirus 3-chymotrypsin-like protease (3CLpro) inhibitors since COVID-19 outbreak: A strategy to tackle challenges of persistent virus infection” (Eur J Med Chem, 2024).

Assays:
[1] = target: T1, Replicase polyprotein 1ab (Severe acute respiratory syndrome coronavirus 2, UniProt P0DTD1); assay: Inhibition of SARS-CoV-2 3CLp
[2] = target: Protein cereblon/Replicase polyprotein 1ab (Severe acute respiratory syndrome coronavirus 2, UniProt P0DTD1+Q96SW2); assay: PROTAC activity at SARS-CoV-2 Main protease/CRBN E3 ligase (unknown origin)
Chain of Protein cereblon/Replicase polyprotein 1ab (Q96SW2 whole entry, other chains not shown): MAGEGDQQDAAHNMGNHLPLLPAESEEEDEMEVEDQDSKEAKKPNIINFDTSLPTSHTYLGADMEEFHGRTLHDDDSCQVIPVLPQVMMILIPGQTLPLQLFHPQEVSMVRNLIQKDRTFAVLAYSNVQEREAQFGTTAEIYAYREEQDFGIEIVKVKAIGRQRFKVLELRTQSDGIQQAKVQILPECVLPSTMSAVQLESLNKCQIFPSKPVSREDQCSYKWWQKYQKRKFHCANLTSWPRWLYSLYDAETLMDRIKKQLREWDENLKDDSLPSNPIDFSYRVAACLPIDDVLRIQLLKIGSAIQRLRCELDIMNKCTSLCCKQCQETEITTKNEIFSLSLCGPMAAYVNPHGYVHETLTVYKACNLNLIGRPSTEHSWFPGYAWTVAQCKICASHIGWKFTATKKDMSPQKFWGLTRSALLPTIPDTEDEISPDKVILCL

[3] = target: T1, Replicase polyprotein 1ab; assay: Inhibition of SARS-CoV-2 recombinant main protease; format: single protein
[4] = target: T1, Replicase polyprotein 1ab; assay: Inhibition of 2019-nCoV-2 3CLp using fluorescent substrate by FRET assay
[5] = target: T1, Replicase polyprotein 1ab; assay: Inhibition of SARS-CoV-2 3CLp by mass spectrometry
[6] = Cytotoxicity against African green monkey Vero E6 cells; format: toxicity, cell-based, Vero C1008; settings: chlorocebus sabaeus
[7] = target: T1, Replicase polyprotein 1ab; assay: Inhibition of SARS-CoV-2 3CLp using fluorescent substrate by FRET assay

Work on Cn1cc2cc(/N=c3\[nH]c(=O)n(Cc4cn(CCCC(=O)Nc5cccc6c5C(=O)N(C5CCC(=O)NC5=O)C6=O)nn4)c(=O)n3Cc3cc(F)c(F)cc3F)c(Cl)cc2n1 (stereo not given) yielded an IC50 [1] of less than 0.1 µM and an EC50 [2] of less than 0.1 µM.
For COCCCc1cc(Cl)cc(-c2cc(-c3c[nH]c(=O)[nH]c3=O)cn(-c3cccnc3)c2=O)c1, the IC50 [3] was 0.025 µM.
Molecule Cn1cc2cc(/N=c3\[nH]c(=O)n(Cc4nnn[nH]4)c(=O)n3Cc3cc(F)c(F)cc3F)c(Cl)cc2n1 has an IC50 [4] of 0.12 µM.
Work on CN(C)CCn1cc2cc(Nc3nc(=O)n(Cc4ccc[nH]c4=O)c(=O)n3Cc3cc(F)c(F)c(F)c3)c(Cl)cc2n1 yielded an IC50 [5] of less than 1 µM.
With Cn1cc2cc(/N=c3\[nH]c(=O)n(Cc4cn(CCC(=O)Nc5cccc6c5C(=O)N(C5CCC(=O)NC5=O)C6)nn4)c(=O)n3Cc3cc(F)c(F)cc3F)c(Cl)cc2n1 (stereo not given) the IC50 [1] was greater than 0.1 µM and the EC50 [2] was greater than 0.1 µM.
Cn1cc2cc(/N=c3\[nH]c(=O)n(Cc4cn(CCCCCC(=O)Nc5cccc6c5C(=O)N(C5CCC(=O)NC5=O)C6=O)nn4)c(=O)n3Cc3cc(F)c(F)cc3F)c(Cl)cc2n1 (stereo not given) gave an IC50 [1] of less than 0.1 µM and an EC50 [2] of less than 0.1 µM.
In the case of C[C@H](NC(=O)[C@@H](c1cccnc1)N(C(=O)c1ccco1)c1ccc(C(C)(C)C)cc1)c1ccccc1, the IC50 [4] is reported as 5.7 µM.
Molecule Cc1cccc(OCc2cc(Cl)cc(-c3cc(-c4c[nH]c(=O)[nH]c4=O)cn(-c4cccnc4)c3=O)c2)c1 has an IC50 [3] of 0.11 µM.
In the case of O=c1[nH]cc(-c2cc(-c3cc(Cl)cc(COc4cccc(F)c4)c3)c(=O)n(-c3cccnc3)c2)c(=O)[nH]1, the IC50 [3] is reported as 0.037 µM.
With Cn1cc2cc(Nc3nc(=O)n(Cc4ccc[nH]c4=O)c(=O)n3Cc3cc(F)c(F)c(F)c3)c(Cl)cc2n1 the IC50 [5] was less than 1 µM.
CCn1cc2cc(Nc3nc(=O)n(-c4cncc(Cl)c4)c(=O)n3Cc3cc(C#N)ccc3Cl)ccc2n1 showed an IC50 [5] of 0.355 µM.
With Cn1cnc(Cn2c(=O)cc(Nc3cc4cn(C)nc4cc3C(F)(F)F)n(Cc3cc(Cl)c(Cl)cc3F)c2=O)n1 the IC50 [5] was 0.014 µM.
In the case of COc1ccc(Nc2nc(=O)n(Cc3ccc[nH]c3=O)c(=O)n2Cc2cc(F)c(F)c(F)c2)cc1, the IC50 [5] is reported as less than 1 µM.
Work on Cn1cnc(Cn2c(=O)cc(Nc3cc4cn(C)nc4cc3F)n(Cc3cc(Cl)c(F)cc3F)c2=O)n1 yielded an IC50 [5] of 0.018 µM.
With Cc1ccccc1OCc1cc(Cl)cc(-c2cc(-c3c[nH]c(=O)[nH]c3=O)cn(-c3cccnc3)c2=O)c1 the IC50 [3] was 0.1 µM.
Work on Cn1cc2cc(/N=c3\[nH]c(=O)n(Cc4cn(CCCCCCCC(=O)Nc5cccc6c5C(=O)N(C5CCC(=O)NC5=O)C6=O)nn4)c(=O)n3Cc3cc(F)c(F)cc3F)c(Cl)cc2n1 (stereo not given) yielded an IC50 [1] greater than 0.1 µM and an EC50 [2] greater than 0.1 µM.
Molecule C[C@H](NC(=O)[C@@H](c1cccnc1)N(C(=O)c1ccco1)c1ccc(-n2cccc2)cc1)c1ccccc1 has a CC50 [6] greater than 200 µM and an IC50 [4] of 0.94 µM.
For CCn1cc2cc(Nc3nc(=O)n(-c4cncc(Cl)c4)c(=O)n3Cc3cc(C#N)ccc3C)ccc2n1, the IC50 [5] was 0.234 µM.
Molecule Cn1cc2cc(/N=c3\[nH]c(=O)n(Cc4cn(CCC(=O)Nc5cccc6c5C(=O)N(C5CCC(=O)NC5=O)C6=O)nn4)c(=O)n3Cc3cc(F)c(F)cc3F)c(Cl)cc2n1 (stereo not given) has an IC50 [1] greater than 0.1 µM and an EC50 [2] greater than 0.1 µM.
Work on Cc1nc2cc(Br)c(Nc3nc(=O)n(Cc4ncn(C)n4)c(=O)n3Cc3cc(F)c(F)c(F)c3)cc2s1 yielded an IC50 [5] of less than 1 µM.
For Cn1cnc(Cn2c(=O)nc(Nc3cc4sc(N)nc4cc3Cl)n(Cc3cc(F)c(F)c(Cl)c3)c2=O)n1, the IC50 [5] was less than 1 µM.
In the case of O=c1[nH]cc(-c2cc(-c3cc(Cl)cc(COc4ccccc4F)c3)c(=O)n(-c3cccnc3)c2)c(=O)[nH]1, the IC50 [3] is reported as 0.024 µM.
In the case of N#Cc1ccccc1-c1cc(-c2cccc(Cl)c2)cn(-c2cccnc2)c1=O, the IC50 [3] is reported as 9.99 µM.
Work on Cn1cnc(Cn2c(=O)cc(Nc3cc4cn(C)nc4cc3Cl)n(Cc3cc(F)c(F)cc3F)c2=O)n1 yielded an IC50 [5] of 0.01 µM.
CC(C)(C)c1ccc(N(C(=O)c2ccco2)[C@@H](C(=O)NC2CCCCC2)c2cccnc2)cc1 gave a CC50 [6] of 18.2 µM and an IC50 [4] of 2.39 µM.
Cn1cc2cc(/N=c3\[nH]c(=O)n(Cc4cn(CCCCCCCC(=O)Nc5cccc6c5C(=O)N(C5CCC(=O)NC5=O)C6)nn4)c(=O)n3Cc3cc(F)c(F)cc3F)c(Cl)cc2n1 (stereo not given) gave an IC50 [1] greater than 0.1 µM and an EC50 [2] greater than 0.1 µM.
For CC(C)(O)Cn1cc2cc(Nc3nc(=O)n(Cc4ccc[nH]c4=O)c(=O)n3Cc3cc(F)c(F)c(F)c3)c(Cl)cc2n1, the IC50 [5] was less than 1 µM.
Molecule COc1ccc(Nc2nc(=O)n(Cc3ccc[nH]c3=O)c(=O)n2Cc2cc(F)c(F)c(F)c2)c(OC)c1 has an IC50 [5] of less than 1 µM.
For O=c1[nH]cc(-c2cc(-c3cc(Cl)cc(COc4ccccc4Cl)c3)c(=O)n(-c3cccnc3)c2)c(=O)[nH]1, the IC50 [3] was 0.018 µM.
CCOC(=O)/C=C/C(=O)N(c1ccc(-c2ccccc2)cc1)[C@@H](C(=O)N[C@@H](C)c1ccccc1)c1cccnc1 gave an IC50 [7] greater than 20 µM.
C=C(Cl)C(=O)N(c1ccc(-c2ccccc2)cc1)[C@@H](C(=O)N[C@@H](C)c1ccccc1)c1cccnc1 showed an IC50 [7] of 4.22 µM.
In the case of Cn1cnc(Cn2c(=O)nc(Nc3cc4sc(NCC(F)F)nc4cc3Cl)n(Cc3cc(F)c(F)c(F)c3)c2=O)n1, the IC50 [5] is reported as less than 1 µM.
